Patent publication EP0041491B1, “New para-substituted 3-phenoxy-1-alkylamino-propanol-2-s having beta receptor blocking properties” (priority 1980, dated 1981)

Experiments:
[1] = tested on: cardiac beta-adrenoceptors; assay: Experiment A: blockade of isoprenaline induced heart rate response, i.v. bolus of test compound, reserpinized anaesthetized cat; format: in vivo; conditions: i.v. bolus injection during isoprenaline infusion, reserpine pretreated, pentobarbital anaesthetized, vagotomized cats
Experimental: (§1) A bilateral vagotomy was performed in the neck. […] The perfusion pressure (PP) was recorded.
For each dose of the test compound the peak reduction of the isoprenaline heart rate response was expressed as per cent blockade according to the formula: [formula]
(§2) Per cent blockade (for each dose) was then plotted against log dose of the test compound. The ED:50 value (i.e. the dose which produced half maximal blockade) was interpolated.

[2] = tested on: vascular beta-adrenoceptors; assay: Experiment A: blockade of isoprenaline induced vasodilatation (hind leg perfusion pressure), i.v. bolus of test compound; format: in vivo; conditions: i.v. bolus injection during isoprenaline infusion, reserpine pretreated cats
Experimental: A bilateral vagotomy was performed in the neck. […] The perfusion pressure (PP) was recorded. […]
as §2

[3] = tested on: cardiac beta-adrenoceptors; assay: Experiment B: blockade of isoprenaline induced heart rate response, i.v. infusion of test compound; format: in vivo; conditions: i.v. infusion 12 minutes per dose, isoprenaline bolus 10 minutes after start, reserpine pretreated cats
Experimental: as §1
(§3) An isoprenaline bolus dose which gave a heart rate response which was about 80% of the maximal response was then tested out. Usually this dose of isoprenaline was 0.4 µmol/kg.
(§4) The test compound was then infused intravenously in increasing doses. Each dose was given during 12 minutes with an interval of 18 minutes between doses.
(§5) The control dose of isoprenaline was injected 10 minutes after start of each infusion of the test compound. The dose of the test compound was increased logarithmically until total blockade of the isoprenaline responses was achieved.
(§6) The inhibitory effect of each dose of the test compound was expressed as per cent blockade according to the formula: [formula]
(§7) Per cent blockade was then plotted against log dose of the blocker and the ED:50-value was interpolated (cf. above). The ED:50 for heart rate blockade and ED:50 for blockade of the vaso- dilatation could then be compared and the selectivity for the compound estimated. Intrinsic sympa- thomimetic activity was evaluated as the maximal heart rate elevation during infusion of the test compound.

[4] = tested on: vascular beta-adrenoceptors; assay: Experiment B: blockade of isoprenaline induced vasodilatation, i.v. infusion of test compound; format: in vivo; conditions: i.v. infusion 12 minutes per dose, isoprenaline bolus 10 minutes after start, reserpine pretreated cats
Experimental: as §1, §3, §4, §5, §6, §7

in vivo = conditions: cat, iv
Experimental: (§8) All compounds were thereby tested in two different experimental models but with the same species, premedication and preparation. Cats (males and females weighing 2.5-3.5 kg) were pretreated with reserpine (5 mg/kg bodyweight administered intraperitoneally) about 16 hours before the experiments. The animals were pretreated with reserpine in order to eliminate the endogenous sympathetic control of heart rate and vascular smooth muscle tone. The cats were anaesthetized with pentobarbital (30 mg/kg bodyweight administered i.p.) and artificially ventilated with room air. A bilateral vagotomy was performed in the neck. Blood pressure was obtained from a cannulated carotid artery and heart rate was recorded from a cardiotachometer, triggered by the oscillations in blood pressure. The femoral artery of one hind leg was cannulated in both directions. Blood taken from the proximal part was pumped, at a constant flowrate, back into the distal part of the artery by means of a roller pump (Watson-Marlow). The perfusion pressure (PP) was recorded. Changes in PP indicated changes in the peripheral vascular resistance of the leg.
(§9) The maximal heart rate and vasodilator responses to isoprenaline were established by injecting a high i.v. bolus dose of isoprenaline (2.0 µmol/kg). An isoprenaline infusion rate was then established which gave a heart rate response (at steady state) which was about 80% of the maximal heart rate response to isoprenaline. Usually this dose of isoprenaline was 0.25 µmol/kg x min. The vasodilator response to this dose of isoprenaline was also approximately 80% of maximal. The isoprenaline dose was then infused during periods of 20 minutes with an interval of 20 minutes between the infusion periods.
(§10) The test compound was administered as an intravenous bolus injection seven minutes after start of each isoprenaline infusion. The dose of the test compound was increased until total blockade of the isoprenaline responses was achieved.
(§11) The plasma half life was estimated by the method of Levy (Nagashima, R., O'Reilly, R. A. and Levy, G., Clin. Pharmacol. Ther., 10 (1969) 22). The time from the peak inhibitory effect of each dose until 50% recovery was determined and plotted against log dose of the compound. The slope of the line obtained was calculated with linear regression. The slope equals 2.303/KE where Ke is the rate constant for elimination. The plasma half life (t 1/2) was then calculated according to the relation t 1/2 = 0.693/KE.

[5] = Experiment A: plasma half life estimated by the method of Levy from time to 50% recovery of the blockade; conditions: cat, iv
Experimental: as §8, §9, §10, §11

SMILES	half-life (in vivo) [min]	half-life [5] [min]	Blockade of isoprenaline induced effects Heart rate ED:50 [1] [µmol/kg]	Blockade of isoprenaline induced effects Vasodilatation ED:50 [2] [µmol/kg]	Blockade of isoprenaline induced effects Heart rate ED:50 [3] [µmol/kg/min]	Blockade of isoprenaline induced effects Vasodilatation ED:50 [4] [µmol/kg/min]
COC(=O)CCc1ccc(OCC(O)CNC(C)C)cc1 (centres unmarked) [Ex. 1, methyl 3-[4-(2-hydroxy-3.-isopropylaminopropoxy)phenyl]propanoate]	1		2.3	~32.0	3.6	>25.6
CCOC(=O)CCc1ccc(OCC(O)CNC(C)C)cc1 (centres unmarked) [Ex. 2, Ethyl 3-[4-(2-hydroxy-3-isopropylaminopropoxy)-phenyl]propanoate]		1	4.7	>51.2	2.1	12.0
COCCOC(=O)CCc1ccc(OCC(O)CNC(C)C)cc1 (centres unmarked) [Ex. 3, 2-Methoxyethyl 3-[4-(2-hydroxy-3-isopropylaminopropoxy)phenyl]propanoate]		1.5	26.0	~30.0	1.3	>25.6
COCCOC(=O)CCCc1ccc(OCC(O)CNC(C)C)cc1 (centres unmarked) [Ex. 4, 2-Methoxyethyl 4-[4-(2-hydroxy-3-isopropylaminopropoxy)phenyl]butanoate]		1.7	3.0	51.8	1.1	2.3
CCCOC(=O)CCc1ccc(OCC(O)CNC(C)C)cc1 (centres unmarked) [Ex. 5, Propyl 3-[4-(2-hydroxy-3-isopropylaminopropoxy)phenyl]propanoate]		0.3	~20.0	>51.2	9.0	>25.6
CC(C)NCC(O)COc1ccc(CCC(=O)OC(C)C)cc1 (centres unmarked) [Ex. 6, Isopropyl 3-[4-(2-hydroxy-3-isopropylaminopropoxy)phenyl]propanoate]		3.5	1.7	>12.8	0.9	>6.4
CCOC(=O)CCCc1ccc(OCC(O)CNC(C)C)cc1 (centres unmarked) [Ex. 7, Ethyl 4-[4-(2-hydroxy-3-isopropylaminopropoxy)phenyl]butanoate]		3.3	1.8	>51.0	1.5	>6.4
CCOC(=O)CCCc1ccc(OCC(O)CNC(C)C)c(Br)c1 (centres unmarked) [Ex. 8, Ethyl 4-[3-bromo-4-(2-hydroxy-3-isopropylaminopropoxy)phenyl]butanoate]		~8	2.1	>17.0	1.2	>6.4
COC(=O)CCc1ccc(OCC(O)CNC(C)C)c(OC)c1 (centres unmarked) [Ex. 15, methyl 3-[4-(2-hydroxy-3-isopropylaminopropoxy)-3-methoxyphenyl]propanoate]		1	0.9	~20.0	1.9	18.0

Now from value to compound, other results behind:

half-life (in vivo) [min]	half-life [5] [min]	SMILES	Blockade of isoprenaline induced effects Heart rate ED:50 [1] [µmol/kg]	Blockade of isoprenaline induced effects Vasodilatation ED:50 [2] [µmol/kg]	Blockade of isoprenaline induced effects Heart rate ED:50 [3] [µmol/kg/min]	Blockade of isoprenaline induced effects Vasodilatation ED:50 [4] [µmol/kg/min]
	2.2	CCOC(=O)CCc1ccc(OCC(O)CNC(C)C)c(Br)c1 (centres unmarked) [Ex. 20, ethyl 3-[3-bromo-4-(2-hydroxy-3-isopropylaminopropoxy)phenyl]propanoate]	0.45	>12.8	1.2	>6.4
	0.9	CCOC(=O)CCc1ccc(OCC(O)CNC(C)C)c(OC)c1 (centres unmarked) [Ex. 21, ethyl 3-[4-(2-hydroxy-3-isopropylaminopropoxy)-3-methoxyphenyl]propanoate]	0.8	>52	2.05	>6.4
	0.9	CCOC(=O)CCc1ccc(OCC(O)CNC(C)C)c(OCC)c1 (centres unmarked) [Ex. 22, ethyl 3-[3-ethoxy-4-(2-hydroxy-3-isopropylaminopropoxy)phenyl]propanoate]	2.0	>52	0.6	0.8
	1.8	CCOC(=O)CCc1ccc(OCC(O)CNC(C)C)c(Cl)c1 (centres unmarked) [Ex. 23, ethyl 3-[3-chloro-4-(2-hydroxy-3-isopropylaminopropoxy)phenyl]propanoate]	1.8	>52		
	2.1	COc1cc(CCC(=O)OC(C)C)ccc1OCC(O)CNC(C)C (centres unmarked) [Ex. 24, isopropyl 3-[4-(2-hydroxy-3-isopropylaminopropoxy)-3-methoxyphenyl]propanoate]	1.2	>12.8		
	0.9	CCOC(=O)CCc1ccc(OCC(O)CNC(C)C)c(F)c1 (centres unmarked) [Ex. 25, ethyl 3-[3-fluoro-4-(2-hydroxy-3-isopropylaminopropoxy)phenyl]propanoate]	0.6	>12.8	2.1	>6.4
